Where “and” joins values, the source holds several entries; their conditions need not be identical. Equal values may be shown once. Results filed as inconclusive are left out.
Test system: Nude mice, LX-1 lung xenograft intrarenal, tumor weight T/C
Assay: NCI In Vivo Anticancer Drug Screen. Data for tumor model Human Lung LX-1 Xenograft (intrarenal inoculation) in NU/NU BALB/C (nude) mice
Settings: endpoint: mean tumor weight change, higher = larger tumour
Method: The antitumor activity of compounds was measured in mice bearing transplantable tumors. Survival or tumor size were measured and the results are expressed as the measurement made in the treated group (T) divided by the measurement made in the vehicle treated control group (C). The tumor model used in this assay is Human Lung LX-1 Xenograft (intrarenal inoculation) in NU/NU BALB/C (nude) mice

[1] = dose: 300.0 mg/kg/injection, schedule: Q04DX003 (sc), vehicle: saline
[2] = dose: 600.0 mg/kg/injection, schedule: Q04DX003 (sc), vehicle: saline
[3] = dose: 1200.0 mg/kg/injection, schedule: Q04DX003 (sc), vehicle: saline

CN(Cc1cnc2nc(N)nc(N)c2n1)c1ccc(C(=O)N[C@@H](CCC(=O)O)C(=O)O)cc1
T/C (dose: 1.0 mg/kg/injection, schedule: Q01DX010 (sc), vehicle: sodium bicarbonate): 72 % of control and 84 % of control
T/C (dose: 4.0 mg/kg/injection, schedule: Q01DX010 (sc), vehicle: sodium bicarbonate): 47 % of control

CC[C@](C)(O)C(=O)O[C@H]1C(=O)O[C@@H]2C[C@H]3C(C)=CC(=O)[C@@H](O)[C@]3(C)[C@H]3[C@@]4(O)OC[C@]32[C@@H]1[C@@H](C)[C@H]4O
T/C (dose: 0.5 mg/kg/injection, schedule: Q01DX010 (sc), vehicle: Klucel (hydroxypropylcellulose) (HPC)): 38 % of control
T/C (dose: 1.0 mg/kg/injection, schedule: Q01DX010 (sc), vehicle: Klucel (hydroxypropylcellulose) (HPC)): 17 % of control

Cc1cnc(/C=N\NC(N)=S)c2cccc(N)c12
T/C (dose: 31.75 mg/kg/injection, schedule: Q04DX003 (ip), vehicle: saline with Tween-80): 74 % of control
T/C (dose: 62.5 mg/kg/injection, schedule: Q04DX003 (ip), vehicle: saline with Tween-80): 89 % of control
T/C (dose: 125.0 mg/kg/injection, schedule: Q04DX003 (ip), vehicle: saline with Tween-80): 49 % of control

N#CC(OC1OC(COC2OC(CO)C(O)C(O)C2O)C(O)C(O)C1O)c1ccccc1 (stereo not drawn)
T/C [1]: 162 % of control
T/C [2]: 115 % of control
T/C [3]: 193 % of control
T/C (dose: 2400.0 mg/kg/injection, schedule: Q04DX003 (sc), vehicle: saline): 158 % of control

O=C1CCC(=O)N1CO
T/C (dose: 150.0 mg/kg/injection, schedule: Q04DX003 (sc), vehicle: saline): 95 % of control
T/C [1]: 93 % of control
T/C [2]: 82 % of control
T/C [3]: 63 % of control

O=C(O)CP(=O)(O)O
T/C [1]: 105 % of control
T/C [2]: 156 % of control
T/C [3]: 106 % of control

CC1=CC2c3cccc4[nH]cc(c34)CC2N(C)C1 (stereo not drawn)
T/C (dose: 6.25 mg/kg/injection, schedule: Q04DX003 (ip), vehicle: suspension in saline): 93 % of control
T/C (dose: 12.5 mg/kg/injection, schedule: Q04DX003 (ip), vehicle: suspension in saline): 111 % of control
T/C (dose: 25.0 mg/kg/injection, schedule: Q04DX003 (ip), vehicle: suspension in saline): 115 % of control
T/C (dose: 50.0 mg/kg/injection, schedule: Q04DX003 (ip), vehicle: suspension in saline): 115 % of control

N[C@@H](Cc1ccc(N(CCCl)CCCl)cc1)C(=O)O
T/C (dose: 1.0 mg/kg/injection, schedule: Q01DX010 (sc), vehicle: saline): 94 % of control
T/C (dose: 2.0 mg/kg/injection, schedule: Q01DX010 (sc), vehicle: saline): 47 % of control
T/C (dose: 4.0 mg/kg/injection, schedule: Q01DX010 (sc), vehicle: saline): 13 % of control
T/C (dose: 8.0 mg/kg/injection, schedule: Q01DX010 (sc), vehicle: saline): -19 % of control

Cc1cc(=NO)cc(C)n1O
T/C (dose: 300.0 mg/kg/injection, schedule: Q04DX003 (sc), vehicle: distilled water + alcohol): 102 % of control
T/C (dose: 600.0 mg/kg/injection, schedule: Q04DX003 (sc), vehicle: distilled water + alcohol): 102 % of control
T/C (dose: 1200.0 mg/kg/injection, schedule: Q04DX003 (sc), vehicle: distilled water + alcohol): 60 % of control

Nc1ccn(C2OC(CO)C(O)C2O)c(=O)n1 (stereo not drawn)
T/C (dose: 15.63 mg/kg/injection, schedule: Q01DX010 (sc), vehicle: water): 56 % of control
T/C (dose: 31.25 mg/kg/injection, schedule: Q01DX010 (sc), vehicle: water): 91 % of control
T/C (dose: 62.5 mg/kg/injection, schedule: Q01DX010 (sc), vehicle: water): 55 % of control
T/C (dose: 125.0 mg/kg/injection, schedule: Q01DX010 (sc), vehicle: water): 2 % of control
T/C (dose: 500.0 mg/kg/injection, schedule: Q04DX003 (sc), vehicle: saline): 87 % of control
T/C (dose: 1000.0 mg/kg/injection, schedule: Q04DX003 (sc), vehicle: saline): 61 % of control

Cn1c(=O)[nH]c2nncnc2c1=O
T/C (dose: 62.5 mg/kg/injection, schedule: Q04DX003 (sc), vehicle: water): 110 % of control

CC(/C=C/c1ccccc1)=Nc1ccccc1
T/C (dose: 300.0 mg/kg/injection, schedule: Q04DX003 (sc), vehicle: saline with Tween-80): 63 % of control
T/C (dose: 600.0 mg/kg/injection, schedule: Q04DX003 (sc), vehicle: saline with Tween-80): 108 % of control
T/C (dose: 1200.0 mg/kg/injection, schedule: Q04DX003 (sc), vehicle: saline with Tween-80): 83 % of control
T/C (dose: 2400.0 mg/kg/injection, schedule: Q04DX003 (sc), vehicle: saline with Tween-80): 100 % of control

CN(C)N=Nc1cccc(C(N)=O)c1
T/C (dose: 25.0 mg/kg/injection, schedule: Q04DX003 (sc), vehicle: Klucel (hydroxypropylcellulose) (HPC)): 20 % of control
T/C (dose: 200.0 mg/kg/injection, schedule: Q04DX003 (sc), vehicle: Klucel (hydroxypropylcellulose) (HPC)): -93 % of control

COC1=C(OC)C(=O)C(C/C=C(\C)CC/C=C(\C)CC/C=C(\C)CC/C=C(\C)CC/C=C(\C)CC/C=C(\C)CC/C=C(\C)CC/C=C(\C)CC/C=C(\C)CCC=C(C)C)=C(C)C1=O
T/C (dose: 50.0 mg/kg/injection, schedule: Q01DX010 (sc), vehicle: saline with Tween-80): 91 % of control
T/C (dose: 100.0 mg/kg/injection, schedule: Q01DX010 (sc), vehicle: saline with Tween-80): 90 % of control
T/C (dose: 200.0 mg/kg/injection, schedule: Q01DX010 (sc), vehicle: saline with Tween-80): 102 % of control
T/C (dose: 400.0 mg/kg/injection, schedule: Q01DX010 (sc), vehicle: saline with Tween-80): 104 % of control

[N-]=[N+]=CC(=O)CCC(N)C(=O)O (stereo not drawn)
T/C (dose: 0.05 mg/kg/injection, schedule: Q01DX010 (sc), vehicle: saline): 119 % of control
T/C (dose: 0.05 mg/kg/injection, schedule: Q02DX005 (sc), vehicle: saline): 226 % of control
T/C (dose: 0.1 mg/kg/injection, schedule: Q01DX010 (sc), vehicle: saline): 64 % of control
T/C (dose: 0.1 mg/kg/injection, schedule: Q02DX005 (sc), vehicle: saline): 187 % of control
T/C (dose: 0.2 mg/kg/injection, schedule: Q02DX005 (sc), vehicle: saline): 110 % of control
T/C (dose: 0.4 mg/kg/injection, schedule: Q01DX010 (sc), vehicle: saline): 34 % of control
T/C (dose: 3.2 mg/kg/injection, schedule: Q02DX005 (sc), vehicle: saline): 9 % of control

CC(C)CCC(=O)c1ccoc1
T/C (dose: 0.75 mg/kg/injection, schedule: Q01DX010 (ip), vehicle: saline with Tween-80): 123 % of control
T/C (dose: 3.0 mg/kg/injection, schedule: Q01DX010 (ip), vehicle: saline with Tween-80): 71 % of control
T/C (dose: 6.0 mg/kg/injection, schedule: Q01DX010 (ip), vehicle: saline with Tween-80): 73 % of control

Nc1cc2[nH]cnc2c(=O)[nH]1
T/C (dose: 25.0 mg/kg/injection, schedule: Q01DX010 (sc), vehicle: saline): 75 % of control
T/C (dose: 50.0 mg/kg/injection, schedule: Q01DX010 (sc), vehicle: saline): 89 % of control

COC(=O)Nc1cn2cc(C(=O)c3cccs3)ccc2n1
T/C (dose: 300.0 mg/kg/injection, schedule: Q04DX003 (sc), vehicle: Klucel (hydroxypropylcellulose) (HPC)): 94 % of control
T/C (dose: 600.0 mg/kg/injection, schedule: Q04DX003 (sc), vehicle: Klucel (hydroxypropylcellulose) (HPC)): 96 % of control
T/C (dose: 1200.0 mg/kg/injection, schedule: Q04DX003 (sc), vehicle: Klucel (hydroxypropylcellulose) (HPC)): 54 % of control
T/C (dose: 2400.0 mg/kg/injection, schedule: Q04DX003 (sc), vehicle: Klucel (hydroxypropylcellulose) (HPC)): 99 % of control

COc1cc2cc(c1Cl)N(C)C(=O)C[C@H](OC(=O)[C@H](C)N(C)C(C)=O)[C@]1(C)O[C@H]1[C@H](C)[C@@H]1C[C@@](O)(NC(=O)O1)[C@H](OC)C=C/C=C(\C)C2
T/C (dose: 50.0 mg/kg/injection, schedule: Q01DX010 (sc), vehicle: Klucel (hydroxypropylcellulose) (HPC)): 72 % of control
T/C (dose: 100.0 mg/kg/injection, schedule: Q01DX010 (sc), vehicle: Klucel (hydroxypropylcellulose) (HPC)): 3 % of control
T/C (dose: 200.0 mg/kg/injection, schedule: Q01DX010 (sc), vehicle: Klucel (hydroxypropylcellulose) (HPC)): 1 % of control
T/C (dose: 12.5 micrograms/kg/injection, schedule: Q01DX010 (sc), vehicle: Klucel (hydroxypropylcellulose) (HPC)): 224 % of control
T/C (dose: 25.0 micrograms/kg/injection, schedule: Q01DX010 (sc), vehicle: Klucel (hydroxypropylcellulose) (HPC)): 77 % of control
T/C (dose: 50.0 micrograms/kg/injection, schedule: Q01DX010 (sc), vehicle: Klucel (hydroxypropylcellulose) (HPC)): 73 % of control
T/C (dose: 100.0 micrograms/kg/injection, schedule: Q01DX010 (sc), vehicle: Klucel (hydroxypropylcellulose) (HPC)): 32 % of control
T/C (dose: 200.0 micrograms/kg/injection, schedule: Q01DX010 (sc), vehicle: Klucel (hydroxypropylcellulose) (HPC)): 2 % of control

N/C=N/O
T/C (dose: 200.0 mg/kg/injection, schedule: Q01DX010 (sc), vehicle: saline): 180 % of control
T/C (dose: 400.0 mg/kg/injection, schedule: Q01DX010 (sc), vehicle: saline): 161 % of control

CC1CN1C(=O)NCCCCCCNC(=O)N1CC1C (stereo not drawn)
T/C (dose: 20.0 mg/kg/injection, schedule: Q04DX003 (sc), vehicle: Klucel (hydroxypropylcellulose) (HPC)): 68 % of control

Reference: PubChem BioAssay AID266 (DTP/NCI, 2004)
